# Several values for one entry are separate records, joined by “and”; a condition that tells them apart may be missing. Equal values may be shown once. Read-outs that look alike come from different tables or passages of the source.
# Columns and labels:
# [1] = system: U251 cells expressing Fluc construct; assay: control Fluc (full length luciferase) reporter assay in U251 cells; format: cell-based
# Procedure, shortened: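 U251 cells carrying HuR fused to N- or C-terminal split firefly luciferase halves (dimer reporter) or full-length Fluc (control); constructs induced with doxycycline 0.75 ug/ml for 48 h. Compounds at various concentrations vs vehicle for 6 h. Luciferin-driven luminescence read; mean+SD.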
# [2] = in vivo pharmacokinetic study in mice by ip administration; design: species or system C57Bl/6 mice; conditions: for concentration at 0.167 h / concentration at 0.5 h / Kp at 0.167 h / Kp at 0.5 h / Kp at 1 h / AUC(0-inf) / AUC(0-t) / Cmax / Tmax / MRT inf / half-life / Brain concentration / Plasma concentration / Ratio (Brain/Plasma) / AUCExtrap—obs: mouse; for concentration at 0.167 h / concentration at 0.5 h / Kp at 0.167 h / Kp at 0.5 h / Kp at 1 h / Brain concentration / Plasma concentration / Ratio (Brain/Plasma): 10 mg/kg IP; for AUC(0-inf) / AUC(0-t) / Cmax / Tmax / MRT inf / half-life: C57Bl/6; for MRT inf: read-out: MRTInf_obs
# Protocol: The in vivo PK study for SRI-42127 was performed by Pharmaron (Beijing, China); pharmacokinetics were evaluated in the C57Bl/6 mice. […]
# IRAK1 = IRAK1 (Homo sapiens, UniProt P51617); assay: SelectScreen kinase profiling, Adapta; format: biochemical
# Chain of IRAK1 (P51617 whole entry): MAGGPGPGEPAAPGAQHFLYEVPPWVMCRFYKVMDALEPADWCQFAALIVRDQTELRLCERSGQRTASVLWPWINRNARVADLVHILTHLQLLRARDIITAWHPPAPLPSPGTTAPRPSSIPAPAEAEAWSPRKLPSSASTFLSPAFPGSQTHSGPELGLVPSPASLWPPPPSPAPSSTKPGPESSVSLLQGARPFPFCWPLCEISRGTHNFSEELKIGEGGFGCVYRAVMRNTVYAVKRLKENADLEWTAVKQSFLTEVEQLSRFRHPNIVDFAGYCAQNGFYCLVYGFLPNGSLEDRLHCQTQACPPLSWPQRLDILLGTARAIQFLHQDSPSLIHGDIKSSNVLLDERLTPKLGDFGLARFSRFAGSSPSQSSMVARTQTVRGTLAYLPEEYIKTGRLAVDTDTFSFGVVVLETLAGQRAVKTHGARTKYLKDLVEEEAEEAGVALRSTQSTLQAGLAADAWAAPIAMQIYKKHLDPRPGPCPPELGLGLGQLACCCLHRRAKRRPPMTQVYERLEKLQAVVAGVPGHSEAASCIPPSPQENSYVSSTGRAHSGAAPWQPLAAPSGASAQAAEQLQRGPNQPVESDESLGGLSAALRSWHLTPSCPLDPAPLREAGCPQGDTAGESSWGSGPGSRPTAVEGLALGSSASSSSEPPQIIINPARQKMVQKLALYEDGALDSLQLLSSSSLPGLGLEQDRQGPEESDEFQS
# Protocol: The kinase inhibitory potentials of compounds as described herein (e.g., SRI-42127 and SRI-41664) were evaluated by ThermoFisher Scientific's SelectScreen™ Kinase Profiling Service. The following kinase inhibitory assays were utilized: ZLYTE (Madison, WI) for NTRK1, PIM1, and cMET kinases; LanthaScreen Binding (Madison, WI) for AAK1 kinase; and Adapta (Madison, WI) for IRAK1 kinase.
# [3] = system: inflammatory cytokines, chemokines and other mediators in primary microglial cells; assay: qPCR of inflammatory mediator mRNAs in LPS-activated primary microglia; format: cell-based, mouse; conditions: 24 hours
# Protocol: Cultured primary microglial cells isolated from neonatal mouse brain were treated with LPS to achieve activation. Cells were then treated with varying doses of SRI-42127 or vehicle for 24 hours. Total RNA was harvested from the cells and various mRNAs were quantified by qPCR as depicted in FIG. 12. Consistent with microglial activation, there were large inductions of inflammatory cytokines, chemokines and other mediators including IL-1β, IL-6, TNF-α, iNOS, IL-10, CXCL1, CXCL2, CXCL10, CCL2, CCL3, and CCL4. These inductions were as high as ˜3500-fold for IL-6.
# Major chemokines CXCL1, CXCL2 and CCL3 were suppressed by more than 2-fold. There was a mixed effect on markers of M2-like markers, with TGF-β1 and YM1 increasing and IL-10 decreasing. As these inflammatory factors were secreted, they were quantified by ELISA in culture medium. The greatest effect was with IL-6 which was suppressed at a lower dose of SRI-42127 (1.7-fold at 0.1 μM) and nearly 10-fold at 1.0 μM. IL-1β and TNF-α were suppressed by 5-fold at 1.0 μM.
# HuR = HuR localization (N/C ratio) in LPS-stimulated cultured astrocytes; format: cell-based; conditions: 0.5 μM for 24 hours
# Protocol: First, the effect of SRI-42127 on HuR localization in astrocytes was studied. […] Quantification of the N/C HuR ratio using methodology described with microglia was 2.0. With LPS stimulation, there was translocation of HuR to the cytoplasm consistent with astrocyte activation and the N/C ratio decreased to 0.4 (P<0.001). When cells were treated with SRI-42127, this ratio was reversed back to pre-stimulation value (1.9). These findings indicate that SRI-42127 blocks cytoplasmic translocation of HuR in activated astrocytes.
# [4] = system: inflammatory cytokine mRNAs in astrocytes; assay: inflammatory cytokine mRNAs in LPS-stimulated astrocytes; format: cell-based
# Protocol: Next, the impact of SRI-42127 on induction of inflammatory cytokine mRNAs as depicted in FIG. 15, Panel B was assessed. A significant 3-4-fold suppression of mRNA for IL-1β, IL-6, CXCL1, and CCL2 was observed. […] All chemokines were likewise suppressed, including KC, CCL2, CCL3, CCL4, CXCL10, from 2.5 to 8.1-fold.
# [5] = 0.167 h, individual animals, 10 mg/kg
# [6] = 0.5 h, individual animals, 10 mg/kg
# [7] = 1 h, individual animals, 10 mg/kg
smiles,measurement,setting,value
CN(c1ccc2ncc(-c3ccc4cn[nH]c4c3)n2n1)C1CCOCC1 [Compound 19],decrease of luminescence signal from cells overexpressing the control Fluc construct,"[1]; 6 hours, represents the cytotoxic effect",26±9%
same,inhibition at 50 µM,"[1]; Homo sapiens, U-251, 6 h, Concn 50 uM, read-out: Fluc Imax % Inh",26%
same,concentration at 0.167 h,"[2]; C57Bl/6, mouse, brain, ip, 10 mg/kg, 0.167 h, individual animals, read-out: Brain concentration",1220 ng/g
same,concentration at 0.5 h,"[2]; C57Bl/6, mouse, brain, ip, 10 mg/kg, 0.5 h, individual animals, read-out: Brain concentration",420 ng/g
same,Kp,"[2]; C57Bl/6, mouse, brain/plasma, ip, 10 mg/kg, mice, ip administration, all time points, read-out: brain/plasma concentration ratio",~0.4
same,Kp at 0.167 h,"[2]; C57Bl/6, mouse, brain/plasma, ip, 10 mg/kg, 0.167 h, individual animals, read-out: Ratio (Brain/Plasma)",0.419
same,Kp at 0.167 h,"[2]; C57Bl/6, mouse, brain/plasma, ip, 10 mg/kg, 0.167 h, read-out: Ratio (Brain/Plasma) Mean",0.399
same,Kp at 0.5 h,"[2]; C57Bl/6, mouse, brain/plasma, ip, 10 mg/kg, 0.5 h, individual animals, read-out: Ratio (Brain/Plasma)",0.536
same,Kp at 0.5 h,"[2]; C57Bl/6, mouse, brain/plasma, ip, 10 mg/kg, 0.5 h, read-out: Ratio (Brain/Plasma) Mean",0.455
same,Kp at 1 h,"[2]; C57Bl/6, mouse, brain/plasma, ip, 10 mg/kg, 1 h, individual animals, read-out: Ratio (Brain/Plasma)",0.408
same,Kp at 1 h,"[2]; C57Bl/6, mouse, brain/plasma, ip, 10 mg/kg, 1 h, read-out: Ratio (Brain/Plasma) Mean",0.398
same,concentration at 0.167 h,"[2]; C57Bl/6, mouse, plasma, ip, 10 mg/kg, 0.167 h, individual animals, read-out: Plasma concentration",2910 ng/mL
same,concentration at 0.5 h,"[2]; C57Bl/6, mouse, plasma, ip, 10 mg/kg, 0.5 h, individual animals, read-out: Plasma concentration",782 ng/mL
same,AUC(0-inf),"[2]; 10 mg/kg ip, Brain",550 ng·h/mL
same,AUC(0-t),"[2]; 10 mg/kg ip, Brain",541 ng·h/mL
same,Cmax,"[2]; 10 mg/kg ip, Brain",1370 ng/mL
same,Tmax,"[2]; 10 mg/kg ip, Brain",10 min
same,MRT inf,"[2]; 10 mg/kg ip, Brain",18.8 min
same,half-life,"[2]; 10 mg/kg ip, Brain, read-out: T½ (converted)",9.6 min
same,AUC(0-inf),"[2]; 10 mg/kg ip, Plasma",1340 ng·h/mL
same,AUC(0-t),"[2]; 10 mg/kg ip, Plasma",1320 ng·h/mL
same,Cmax,"[2]; 10 mg/kg ip, Plasma",3460 ng/mL
same,Tmax,"[2]; 10 mg/kg ip, Plasma",10 min
same,MRT inf,"[2]; 10 mg/kg ip, Plasma",18.4 min
same,half-life,"[2]; 10 mg/kg ip, Plasma, read-out: T½ (converted)",9.6 min
same,half-life,"[2]; dose of 10 mg/kg by IP, read-out: half-life (converted)",9.6 min
same,brain/plasma concentration ratio,"[2]; mice, ip administration, all time points, listed as SRI-42127",0.42±0.05
same,Brain concentration,[2]; [5],1375 ng/g and 1520 ng/g
same,Plasma concentration,[2]; [5],3450 ng/mL and 4010 ng/mL
same,Ratio (Brain/Plasma),[2]; [5],0.379
same,Brain concentration,[2]; [6],545 ng/g and 391 ng/g
same,Plasma concentration,[2]; [6],1430 ng/mL and 870 ng/mL
same,Ratio (Brain/Plasma),[2]; [6],0.381 and 0.449
same,Brain concentration,[2]; [7],53.0 ng/g and 43.9 ng/g and 19.7 ng/g
same,Plasma concentration,[2]; [7],130 ng/mL and 104 ng/mL and 53.9 ng/mL
same,Ratio (Brain/Plasma),[2]; [7],0.422 and 0.365
same,AUCExtrap—obs,"[2]; 10 mg/kg ip, Brain",1.63%
same,AUCExtrap—obs,"[2]; 10 mg/kg ip, Plasma",1.65%
same,IC50,IRAK1,319 nM
same,suppression of CCL3 mRNA,[3],more than 2 fold
same,suppression of CXCL1 mRNA,[3],more than 2 fold
same,suppression of CXCL2 mRNA,[3],more than 2 fold
same,suppression of IL-1β mRNA,[3],5.9 fold
same,suppression of IL-6 mRNA,[3],6.8 fold
same,suppression of TNF-α mRNA,[3],1.6 fold
same,suppression of iNOS mRNA,[3],8 fold
same,N/C HuR ratio,HuR,1.9
same,"suppression of mRNA for IL-1β, IL-6, CXCL1, and CCL2",[4],3-4 fold
same,increase of IL-10 mRNA,[4]; 1.0 μM,~3 fold
